Assay results: patent publication US12559492B2, “BRAF degraders” (C4 Therapeutics, Inc., priority 2020, dated 2026)

Target: BRAF^V600E protein (Homo sapiens, UniProt P15056, V600E)
Experiment: HiBiT cellular BRAF V600E degradation assay
Assay type: cell-based
Conditions: 24 h incubation; for DC50: A375.10 cells (HiBiT tag knocked in at N-terminal of BRAF V600E), concentration at which 50% of total cellular BRAF V600E is degraded; for Emax: A375.10 cells, Emax = amount of residual protein remaining in the cell after compound treatment, read-out: HiBit 24 h Emax
Text: DMEM no-phenol red medium supplemented with L-glutamine was purchased from (Corning). Fetal bovine serum (FBS) was purchased from Gibco (Grand Island, NY, USA). Nano-Glo® HiBiT Lytic Assay Buffer & Reagents were purchased from Promega (Madison, WI, USA). […] Cell culture flasks and 384-well black flat-bottom polystyrene TC-treated microplates were acquired from Corning (Corning, NY, USA).
HiBiT Cellular BRAFv^600E Degradation Assay
Prior to the assay, the A375.10 cell line is maintained in DMEM no-phenol red medium supplemented with 10% fetal bovine serum (FBS). […] Briefly, test compounds were added to the 384-well plate from a top concentration of 10 μM with 11 half log dilutions of compound, plated in duplicate. Then, 30 uL of a suspension of A375.10 cell lines was dispensed into columns 1-24 of the 384-well plates at a cell density of 7500 cells per well. The plates were kept at 37° C. with 5% CO2 for the duration of the assay (6 or 24 hr). After the desired incubation time with compound, 30 uL of Nano-Glo® HiBiT Lytic Buffer containing LgBiT protein (diluted 1:100) and luminescence substrate (diluted 1:50) were added to the cells in columns 1-23 of the assay plate. The plate was the incubated for 30 min on the bench at room temperature. Finally, HiBiT luminescence signal was acquired on EnVision™ Multilabel Reader (PerkinElmer, Santa Clara, CA, USA).
Quantification of luminescence responses measured in the presence of compound were normalized to a high signal/no degradation control (untreated cells+lytic detection reagent) and a low signal/full degradation control (untreated cells, no lytic detection reagent). Data were analyzed with a 4-parameter logistic fit to generate sigmoidal dose-response curves. […] The Emax, or maximum effect of each compound, represents the amount of residual protein remaining in the cell following compound treatment.

BRAF^V600E protein, sequence (P15056 whole entry V600E): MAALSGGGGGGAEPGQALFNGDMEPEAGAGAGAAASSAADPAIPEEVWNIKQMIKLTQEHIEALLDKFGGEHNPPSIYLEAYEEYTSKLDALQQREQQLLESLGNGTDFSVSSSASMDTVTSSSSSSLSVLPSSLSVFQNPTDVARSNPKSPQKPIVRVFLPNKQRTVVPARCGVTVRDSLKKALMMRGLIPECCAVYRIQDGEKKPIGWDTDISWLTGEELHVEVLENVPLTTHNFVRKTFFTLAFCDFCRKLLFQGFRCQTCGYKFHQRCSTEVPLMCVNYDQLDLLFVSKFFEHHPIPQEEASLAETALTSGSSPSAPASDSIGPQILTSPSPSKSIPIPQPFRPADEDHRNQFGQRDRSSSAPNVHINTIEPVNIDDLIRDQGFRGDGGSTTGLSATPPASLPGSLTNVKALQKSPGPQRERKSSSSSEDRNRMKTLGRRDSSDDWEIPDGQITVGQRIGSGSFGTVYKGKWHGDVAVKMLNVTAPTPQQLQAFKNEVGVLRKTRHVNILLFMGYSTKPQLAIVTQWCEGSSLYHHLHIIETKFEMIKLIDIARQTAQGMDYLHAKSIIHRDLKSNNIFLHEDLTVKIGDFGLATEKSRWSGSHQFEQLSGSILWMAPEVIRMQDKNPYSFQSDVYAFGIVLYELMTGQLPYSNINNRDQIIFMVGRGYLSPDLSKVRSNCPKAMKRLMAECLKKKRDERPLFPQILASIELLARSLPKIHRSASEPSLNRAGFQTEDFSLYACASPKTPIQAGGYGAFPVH

| DC50 | Emax | Structure (SMILES) |
| --- | --- | --- |
| 2.76 nM | 7.67% | CCN(C)S(=O)(=O)Nc1ccc(F)c(C(=O)c2c[nH]c3ncc(-c4cnc(N5CCN(C(=O)CN6CCC(c7ccc(NC8CCC(=O)NC8=O)c(F)c7)CC6)CC5)nc4)cc23)c1F (stereo not drawn) [Example 29, 5-[2-[4-[2-[4-[4-[(2,6-dioxo-3-piperidyl)amino]-3-fluoro-phenyl]-1-piperidyl]acetyl]piperazin-1-yl]pyrimidin-5-yl]-3-[3-[[ethyl(methyl)sulfamoyl]amino]-2,6-difluoro-benzoyl]-1H-pyrrolo[2,3-b]pyridine] |
| 35 nM | 10.6% | CCN(C)S(=O)(=O)Nc1ccc(F)c(C(=O)c2c[nH]c3ncc(-c4cnc(N5CCN(C(=O)CN6CCC(c7ccc(CN8CCC(=O)NC8=O)cc7)CC6)CC5)nc4)cc23)c1F [Example 32, 5-[2-[4-[2-[4-[4-[(2,4-dioxohexahydropyrimidin-1-yl)methyl]phenyl]-1-piperidyl]acetyl]piperazin-1-yl]pyrimidin-5-yl]-3-[3-[[ethyl(methyl)sulfamoyl]amino]-2,6-difluoro-benzoyl]-1H-pyrrolo[2,3-b]pyridine] |
| 2.51 nM | 19.2% | CCN(C)S(=O)(=O)Nc1ccc(F)c(C(=O)c2c[nH]c3ncc(-c4cnc(N5CCN(C(=O)CN6CCC(c7ccc8c(c7)n(C)c(=O)n8C7CCC(=O)NC7=O)CC6)CC5)nc4)cc23)c1F (stereo not drawn) [Example 33, 1-(2,6-dioxo-3-piperidyl)-5-[1-[2-[4-[5-[3-[3-[[ethyl(methyl)sulfamoyl]amino]-2,6-difluoro-benzoyl]-1H-pyrrolo[2,3-b]pyridin-5-yl]pyrimidin-2-yl]piperazin-1-yl]-2-oxo-ethyl]-4-piperidyl]-3-methyl-2-oxo-benzimidazole] |
| 2.52 nM | 8.14% | CCN(C)S(=O)(=O)Nc1ccc(F)c(C(=O)c2c[nH]c3ncc(-c4cnc(N5CCN(C(=O)CN6CCC(c7ccc8c(N9CCC(=O)NC9=O)nn(C)c8c7)CC6)CC5)nc4)cc23)c1F [Example 34, 3-(2,4-dioxohexahydropyrimidin-1-yl)-6-[1-[2-[4-[5-[3-[3-[[ethyl(methyl)sulfamoyl]amino]-2,6-difluoro-benzoyl]-1H-pyrrolo[2,3-b]pyridin-5-yl]pyrimidin-2-yl]piperazin-1-yl]-2-oxo-ethyl]-4-piperidyl]-1-methyl-indazole] |
| 41.3 nM | 13.2% | CCN(C)S(=O)(=O)Nc1ccc(F)c(C(=O)c2c[nH]c3ncc(-c4cnc(N5CCN(C(=O)CN6CCC(c7ccc(N8CCC(=O)NC8=O)cc7F)CC6)CC5)nc4)cc23)c1F [Example 44, 5-[2-[4-[2-[4-[4-(2,4-dioxohexahydropyrimidin-1-yl)-2-fluoro-phenyl]-1-piperidyl]acetyl]piperazin-1-yl]pyrimidin-5-yl]-3-[3-[[ethyl(methyl)sulfamoyl]amino]-2,6-difluoro-benzoyl]-1H-pyrrolo[2,3-b]pyridine] |

The remaining lines, values behind:

| Structure (SMILES) | DC50 | Emax |
| --- | --- | --- |
| CCN(C)S(=O)(=O)Nc1ccc(F)c(C(=O)c2c[nH]c3ncc(-c4cnc(N5CCN(C(=O)CN6CCC(c7ccc(NC8CCC(=O)NC8=O)cc7)C(F)(F)C6)CC5)nc4)cc23)c1F (stereo not drawn) [Example 30, 5-[2-[4-[2-[4-[4-[(2,6-dioxo-3-piperidyl)amino]phenyl]-3,3-difluoro-1-piperidyl]acetyl]piperazin-1-yl]pyrimidin-5-yl]-3-[3-[[ethyl(methyl)sulfamoyl]amino]-2,6-difluoro-benzoyl]-1H-pyrrolo[2,3-b]pyridine] | 4.27 nM | 7.84% |
| CCN(C)S(=O)(=O)Nc1ccc(F)c(C(=O)c2c[nH]c3ncc(-c4cnc(N5CCN(C(=O)CC6CCN(c7ccc(NC8CCC(=O)NC8=O)cc7)CC6)CC5)nc4)cc23)c1F (stereo not drawn) [Example 31, 5-[2-[4-[2-[1-[4-[(2,6-dioxo-3-piperidyl)amino]phenyl]-4-piperidyl]acetyl]piperazin-1-yl]pyrimidin-5-yl]-3-[3-[[ethyl(methyl)sulfamoyl]amino]-2,6-difluoro-benzoyl]-1H-pyrrolo[2,3-b]pyridine] | 30 nM | 21.2% |
| CCN(C)S(=O)(=O)Nc1ccc(F)c(C(=O)c2c[nH]c3ncc(-c4cnc(N5CCN(C(=O)CN6CCC(N7CCN(C8CCC(=O)NC8=O)C(=O)C7)CC6)CC5)nc4)cc23)c1F (stereo not drawn) [Example 37, 5-[2-[4-[2-[4-[4-(2,6-dioxo-3-piperidyl)-3-oxo-piperazin-1-yl]-1-piperidyl]acetyl]piperazin-1-yl]pyrimidin-5-yl]-3-[3-[[ethyl(methyl)sulfamoyl]amino]-2,6-difluoro-benzoyl]-1H-pyrrolo[2,3-b]pyridine] | 17.2 nM | 9.14% |
| CCN(C)S(=O)(=O)Nc1ccc(F)c(C(=O)c2c[nH]c3ncc(-c4cnc(N5CCN(C(=O)CC6(O)CCN(c7ccc(NC8CCC(=O)NC8=O)cc7)CC6)CC5)nc4)cc23)c1F (stereo not drawn) [Example 38, 5-[2-[4-[2-[1-[4-[(2,6-dioxo-3-piperidyl)amino]phenyl]-4-hydroxy-4-piperidyl]acetyl]piperazin-1-yl]pyrimidin-5-yl]-3-[3-[[ethyl(methyl)sulfamoyl]amino]-2,6-difluoro-benzoyl]-1H-pyrrolo[2,3-b]pyridine] | 4.44 nM | 13.4% |
| CCN(C)S(=O)(=O)Nc1ccc(F)c(C(=O)c2c[nH]c3ncc(-c4cnc(N5CCN(C(=O)CN6CCC(c7ccc(NC8CCC(=O)NC8=O)cc7C(F)F)CC6)CC5)nc4)cc23)c1F (stereo not drawn) [Example 39, 5-[2-[4-[2-[4-[2-(difluoromethyl)-4-[(2,6-dioxo-3-piperidyl)amino]phenyl]-1-piperidyl]acetyl]piperazin-1-yl]pyrimidin-5-yl]-3-[3-[[ethyl(methyl)sulfamoyl]amino]-2,6-difluoro-benzoyl]-1H-pyrrolo[2,3-b]pyridine] | 10.2 nM | 8.74% |
| CCN(C)S(=O)(=O)Nc1ccc(F)c(C(=O)c2c[nH]c3ncc(-c4cnc(N5CCN(C(=O)CN6CCC(c7ccc(NC8CCC(=O)NC8=O)cc7C#N)CC6)CC5)nc4)cc23)c1F (stereo not drawn) [Example 40, 5-[2-[4-[2-[4-[2-cyano-4-[(2,6-dioxo-3-piperidyl)amino]phenyl]-1-piperidyl]acetyl]piperazin-1-yl]pyrimidin-5-yl]-3-[3-[[ethyl(methyl)sulfamoyl]amino]-2,6-difluoro-benzoyl]-1H-pyrrolo[2,3-b]pyridine] | 11.7 nM | 8.42% |
| CCN(C)S(=O)(=O)Nc1ccc(F)c(C(=O)c2c[nH]c3ncc(-c4cnc(N5CCN(C(=O)CN6CCC(c7c(F)cc(OC8CCC(=O)NC8=O)cc7F)CC6)CC5)nc4)cc23)c1F (stereo not drawn) [Example 41, 5-[2-[4-[2-[4-[4-[(2,6-dioxo-3-piperidyl)oxy]-2,6-difluoro-phenyl]-1-piperidyl]acetyl]piperazin-1-yl]pyrimidin-5-yl]-3-[3-[[ethyl(methyl)sulfamoyl]amino]-2,6-difluoro-benzoyl]-1H-pyrrolo[2,3-b]pyridine] | 24.5 nM | 9.48% |
| CCN(C)S(=O)(=O)Nc1ccc(F)c(C(=O)c2c[nH]c3ncc(-c4cnc(N5CCN(C(=O)CC6CCN(c7ccc(NC8CCC(=O)NC8=O)cc7F)CC6)CC5)nc4)cc23)c1F (stereo not drawn) [Example 42, 5-[2-[4-[2-[1-[4-[(2,6-dioxo-3-piperidyl)amino]-2-fluoro-phenyl]-4-piperidyl]acetyl]piperazin-1-yl]pyrimidin-5-yl]-3-[3-[[ethyl(methyl)sulfamoyl]amino]-2,6-difluoro-benzoyl]-1H-pyrrolo[2,3-b]pyridine] | 3.41 nM | 11.5% |
| CCN(C)S(=O)(=O)Nc1ccc(F)c(C(=O)c2c[nH]c3ncc(-c4cnc(N5CCN(C(=O)CC6CCN(c7ccc8c(c7)n(C)c(=O)n8C7CCC(=O)NC7=O)CC6)CC5)nc4)cc23)c1F (stereo not drawn) [Example 43, 1-(2,6-dioxo-3-piperidyl)-5-[4-[2-[4-[5-[3-[3-[[ethyl(methyl)sulfamoyl]amino]-2,6-difluoro-benzoyl]-1H-pyrrolo[2,3-b]pyridin-5-yl]pyrimidin-2-yl]piperazin-1-yl]-2-oxo-ethyl]-1-piperidyl]-3-methyl-2-oxo-benzimidazole] | 22.1 nM | 35.2% |
| CCN(C)S(=O)(=O)Nc1ccc(F)c(C(=O)c2c[nH]c3ncc(-c4cnc(N5CCN(C(=O)CC6CCN(c7c(F)cc(NC8CCC(=O)NC8=O)cc7F)CC6)CC5)nc4)cc23)c1F (stereo not drawn) [Example 45, 5-[2-[4-[2-[1-[4-[(2,6-dioxo-3-piperidyl)amino]-2,6-difluoro-phenyl]-4-piperidyl]acetyl]piperazin-1-yl]pyrimidin-5-yl]-3-[3-[[ethyl(methyl)sulfamoyl]amino]-2,6-difluoro-benzoyl]-1H-pyrrolo[2,3-b]pyridine] | 23.6 nM | 14.2% |
